For 53 compounds, IC50 results are on record in US11117899B2, “[1,2,4]triazolo[1,5-c]pyrimidine derivative as A2A receptor inhibitor” (MEDSHINE DISCOVERY INC., priority 2017, dated 2021).

T1 sequence (P29274 whole entry): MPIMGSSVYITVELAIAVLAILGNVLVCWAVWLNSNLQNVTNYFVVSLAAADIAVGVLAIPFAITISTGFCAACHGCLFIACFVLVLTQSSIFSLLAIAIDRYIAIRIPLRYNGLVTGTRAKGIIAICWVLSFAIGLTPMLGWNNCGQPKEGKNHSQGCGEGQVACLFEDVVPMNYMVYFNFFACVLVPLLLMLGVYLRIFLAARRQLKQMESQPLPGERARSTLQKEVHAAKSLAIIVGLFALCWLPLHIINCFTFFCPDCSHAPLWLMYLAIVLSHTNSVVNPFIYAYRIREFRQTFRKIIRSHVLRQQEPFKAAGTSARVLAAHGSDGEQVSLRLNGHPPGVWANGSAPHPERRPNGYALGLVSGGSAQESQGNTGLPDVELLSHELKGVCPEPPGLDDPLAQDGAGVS

This assay has as its target T1, Human adenosine A2A receptor (Homo sapiens, UniProt P29274).
T1 construct: host or cells: CHO
Nature of the assay: Human adenosine A2A receptor calcium flux assay. Type of assay: cell-based. The conditions noted are these: A2A stable CHO cell strain, antagonist mode against agonist NECA at EC80, FLIPR Fluo-4. As for the experimental part: Human adenosine A2A receptor calcium flux assay
A2A stable cell strain was constructed by Shanghai WuXi PharmaTech, and the host cell was CHO.
Fluo-4 Direct Kit (Invitrogen, Cat. No. F10471). After the fluorescent detection reagent (specifically binding to calcium ions and causing an increase in fluorescence signal) in the kit was incubated with the cells for a suitable period of time, the compound was added to stimulate the cells to cause changes in intracellular calcium flux, thereby causing changes in the fluorescent signal, which can reflect the strength of the agonistic or inhibitory activity of the compound.
F12+10% fetal bovine serum+geneticin 300 ug/ml+blasticidin 2 ug/ml Compound dilution buffer:
Hanks Balanced Salt Buffer (Invitrogen)+20 mM HEPES, configured before each use
The test compounds were dissolved in DMSO to prepare 10 mM stock solutions. The test compounds were diluted to 0.2 mM with DMSO, and the reference compound CGS-15943 was diluted to 0.015 mM with DMSO. Next, 10 points of three-fold serial dilutions were made with ECHO. 900 nl was transferred to the compound plate (Greiner-781280), and 30 ul of compound dilution buffer was added. The final starting concentration of the test compounds was 1 uM and CGS-15943 was 0.075 uM.
Cryopreserved A2A cells were resuscitated, and then resuspended in culture medium to 1×10^6 cells/ml. The suspension was seeded into 384-well polylysine-coated cell plates (Greiner-781946) at 20 μl/well and incubated overnight in a 5% CO2 incubator at 37° C.
The cell plate prepared the day before was taken out from the incubator, and 20 ul of 2× Fluo-4 Direct™ buffer was added to each well. The plate was incubated for 50 minutes in a 5% CO2 incubator at 37° C. and allowed to stand at room temperature for 10 minutes.
Dilution of agonist NECA: 10 points of three-fold serial dilutions were made with Echo for NECA from a starting concentration of 0.15 mM. 900 nL was then transferred to the corresponding compound plate; and then 30 μl of compound dilution buffer was added to the corresponding compound plate. The final starting concentration was 750 nM.
FLIPR instrument software was run. According to the programmed procedure, 10 ul of compound dilution buffer was added to the cell plate and the fluorescence signal was read. 10 ul of the agonist reference compound at the indicated concentration was then added to the cell plate and the fluorescent signal was read. After reading, the data was exported by the “Max-Min”, “Read 90 to Maximum allowed” method in the software, and the EC80 of the A2A cell line was calculated. The agonist was prepared at a concentration of 6× EC80. A 6× EC80 concentration of a reference compound agonist of the corresponding cells was prepared with a buffer solution, and added at 30 ul/well to the corresponding compound plate for use.
FLIPR instrument software was run. According to the programmed procedure, 10 μl of the test compounds and reference compound at an indicated concentration was added to the cell plate and the fluorescence signal was read. 10 ul of the reference compound agonist at a concentration of 6× EC80 was then added to the cell plate and the fluorescent signal was read. For the agonist detection of the compounds, the data was exported by the “Max-Min”, “Read 1 to 90” method in the software. For the antagonist detection of the compound, the data was exported by the “Max-Min”, “Read 90 to Maximum allowed” method in the software. Data were analyzed by GraphPad Prism 5.0 and the IC50 values of the test compounds were calculated.
Background: A change in cytosolic calcium serves as a functional read-out for many receptors and channels.
The term IC50 denotes the concentration that gives 50% inhibition. Consider `Nc1nc(-c2ccccc2)c(-c2cc(C3CC3)nc(C(F)(F)F)c2)c2ncnn12` [Example B-23], for which the IC50 was determined as 50.5 nM.

`Nc1nc(-c2ccccc2)c(-c2cc(Cl)c(O)c(Cl)c2)c2ncnn12` [Example B-15]: the IC50 was 0.44 nM.

As to `Nc1nc(-c2ccccc2)c(-c2ccc3[nH]nnc3c2)c2nc(C(F)(F)F)nn12` [Example C-29], the IC50 is 1.5 nM.

For `COc1cc(F)ccc1-c1nc(N)n2nc(C)nc2c1-c1cc(C)nc(C(F)(F)F)c1` [Example C-39], the IC50 is 10.9 nM.

For `Cc1cc(-c2c(-c3ccc(F)cc3F)nc(N)n3nc(CO)nc23)cc(C(F)(F)F)n1` [Example C-53], the IC50 is 7.73 nM.

On to `COc1cc(-c2c(-c3ccccc3)nc(N)n3ncnc23)ccn1` [Example B-27], for which the IC50 is 0.28 nM.

Consider `Cc1cc(-c2c(-c3ccccc3)nc(N)n3nc(C(=O)O)nc23)cc(C(F)(F)F)n1` [Example C-80], for which the IC50 amounted to 1.82 nM.

Turning to `Cc1cc(-c2c(-c3ccc(F)cc3F)nc(N)n3nc(C)nc23)cc(C(F)(F)F)n1` [Example C-51], the IC50 turned out to be 13.6 nM.

As to `COc1ccc(-c2nc(N)n3ncnc3c2-c2cc(C)nc(C(F)(F)F)c2)cc1` [Example A-6], the IC50 worked out at 1.04 nM.

Consider `Cc1cc(-c2c(-c3ccccn3)nc(N)n3ncnc23)cc(C(F)(F)F)n1` [Example A-7], for which the IC50 was determined as 5.83 nM.

In the case of `CCc1nc2c(-c3ccc4nn[nH]c4c3)c(-c3ccccc3OC)nc(N)n2n1` [Example C-32], the IC50 came to 38.9 nM.

`Cc1cc(-c2c(-c3nccs3)nc(N)n3ncnc23)cc(C(F)(F)F)n1` [Example A-8]: the IC50 turned out to be 23.9 nM.

Take `Nc1nc(-c2ccccc2)c(-c2ccc3c(c2)CC(=O)N3)c2ncnn12` [Example B-20]: the IC50 turned out to be 71.3 nM.

For `Cc1cc(-c2c(-c3ccccc3)nc(N)n3nc(C(=O)NCc4ccc(F)cc4F)nc23)cc(C)n1` [Example C-18], the IC50 is 2.39 nM.

In the case of `Cc1cc(-c2c(-c3ccc(C)o3)nc(N)n3nc(CO[C@H]4CCOC4)nc23)cc(C(F)(F)F)n1` [Example C-72], the half-inhibitory concentration (IC50) amounted to 0.16 nM.

On to `COc1ccccc1Cc1nc2c(-c3cc(C)nc(C)c3)c(-c3ccccc3)nc(N)n2n1` [Example C-16], for which the IC50 amounted to 1.77 nM.

As to `Cc1cc(-c2c(-c3ccccc3)nc(N)n3nc(C)nc23)cc(Cl)n1` [Example C-21], the IC50 was determined as 0.8 nM.

On to `CCc1nc2c(-c3cc(C)nc(C(F)(F)F)c3)c(-c3ccc(F)cc3F)nc(N)n2n1` [Example C-36], for which the IC50 stood at 7.92 nM.

For the compound `Cc1nc2c(-c3ccc4[nH]nnc4c3)c(-c3ccc(F)cc3)nc(N)n2n1` [Example C-59], the IC50 was determined as 9.95 nM.

In the case of `Cc1cc(-c2c(-c3ccccc3Cl)nc(N)n3ncnc23)cc(C)n1` [Example A-28], the IC50 was 37.4 nM.

Regarding `Cc1cc(-c2c(-c3ccc(F)cc3)nc(N)n3nc(CO[C@H]4CCOC4)nc23)cc(C(F)(F)F)n1` [Example C-71], the concentration for half-maximal inhibition (IC50) stood at 0.82 nM.

`Cc1cc(-c2c(-c3ccccc3)nc(N)n3nc(C)nc23)cc(C(F)(F)F)n1` [Example C-5]: the half-inhibitory concentration (IC50) turned out to be 0.53 nM.

Consider `Cc1cc(-c2c(-c3ccc(C)o3)nc(N)n3nc(C(F)(F)F)nc23)cc(C(F)(F)F)n1` [Example C-47], for which the IC50 came out at 13.6 nM.

For `COc1c(F)cc(F)cc1-c1nc(N)n2ncnc2c1-c1cc(Cl)nc(C(F)(F)F)c1` [Example A-33], the 50% inhibitory concentration (IC50) worked out at 15.3 nM.

On to `Nc1nc(-c2ccccc2)c(-c2ccc3[nH]nnc3c2)c2ncnn12` [Example B-33], for which the half-maximal inhibitory concentration (IC50) was 0.12 nM.

For `Cc1cc(-c2c(-c3ccccc3)nc(N)n3nc(C4CC4)nc23)cc(C(F)(F)F)n1` [Example C-10], the 50% inhibitory concentration (IC50) turned out to be 3.68 nM.

For `Cc1cc(-c2c(-c3ccc(C(F)(F)F)cc3)nc(N)n3ncnc23)cc(C(F)(F)F)n1` [Example A-13], the IC50 was 13.8 nM.

`CCc1nc2c(-c3cc(C)nc(C)c3)c(-c3ccccc3)nc(N)n2n1` [Example C-8]: the IC50 stood at 0.45 nM.

Turning to `Nc1nc(-c2ccccc2)c(-c2ccc3[nH]cnc3c2)c2ncnn12` [Example B-8], the IC50 came out at 0.44 nM.

Turning to `COc1cc(F)ccc1-c1nc(N)n2ncnc2c1-c1ccc2nn[nH]c2c1` [Example A-29], the IC50 is 37.2 nM.

On to `Cc1cc(-c2c(-c3ccco3)nc(N)n3ncnc23)cc(C(F)(F)F)n1` [Example A-19], for which the IC50 is 1.16 nM.

In the case of `CCc1nc2c(-c3cc(C)nc(C(F)(F)F)c3)c(-c3ccccc3OC)nc(N)n2n1` [Example C-30], the IC50 is 2.99 nM.

On to `Cc1cc(-c2c(-c3ccc(C#N)cc3)nc(N)n3ncnc23)cc(C(F)(F)F)n1` [Example A-14], for which the IC50 turned out to be 4.07 nM.

Turning to `CC(C)(O)c1nc2c(-c3cc(Cl)nc(C(F)(F)F)c3)c(-c3ccc(F)cc3)nc(N)n2n1` [Example C-77], the concentration for half-maximal inhibition (IC50) worked out at 6.84 nM.

`Cc1cc(-c2c(-c3ccn(C)n3)nc(N)n3nc(C(F)(F)F)nc23)cc(C(F)(F)F)n1` [Example C-63]: the IC50 was 7.22 nM.

With `Cc1cc(-c2c(-c3cc(F)cc(F)c3)nc(N)n3ncnc23)cc(C(F)(F)F)n1` [Example A-5], the IC50 was determined as 0.83 nM.

Turning to `CC1C=C(c2c(-c3ccccc3)nc(N)n3ncnc23)CC(C)O1` (centres unmarked) [Example B-24], the 50% inhibitory concentration (IC50) was 1.18 nM.

With `COc1cc(-c2c(-c3ccccc3)nc(N)n3ncnc23)cc(C)n1` [Example B-29], the IC50 was found to be 0.11 nM.

For the compound `COc1ccccc1-c1nc(N)n2ncnc2c1-c1ccc2nn[nH]c2c1` [Example A-30], the IC50 was found to be 20.4 nM.

With `Cc1cc(-c2c(-c3ccc(F)cc3)nc(N)n3nc(C(C)(C)O)nc23)cc(C(F)(F)F)n1` [Example C-75], the concentration for half-maximal inhibition (IC50) came to 2.03 nM.

For `Cc1ccc(-c2nc(N)n3nc(C(F)(F)F)nc3c2-c2ccc3[nH]nnc3c2)o1` [Example C-48], the IC50 is 11.3 nM.

For `Cc1cc(-c2c(-c3ccc(F)cc3)nc(N)n3nc(C#N)nc23)cc(C)n1` [Example C-62], the IC50 was 0.83 nM.

`COc1cc(F)ccc1-c1nc(N)n2ncnc2c1-c1cc(C)nc(C(F)(F)F)c1` [Example A-23]: the IC50 amounted to 1.15 nM.

On to `CCc1nc2c(-c3ccc4nn[nH]c4c3)c(-c3ccc(F)cc3F)nc(N)n2n1` [Example C-38], for which the IC50 was found to be 15.3 nM.

For `CC(C)c1cc(-c2c(-c3ccccc3)nc(N)n3ncnc23)cc(C(F)(F)F)n1` [Example B-34], the half-maximal inhibitory concentration (IC50) stood at 19 nM.

Regarding `CCc1nc2c(-c3ccc4nn[nH]c4c3)c(-c3ccccc3F)nc(N)n2n1` [Example C-37], the IC50 worked out at 4.68 nM.

As to `Cc1cc(-c2c(-c3ccc(F)cc3)nc(N)n3nc(CN(C)C)nc23)cc(Cl)n1` [Example C-65], the half-inhibitory concentration (IC50) stood at 0.84 nM.

As for `Cc1cc(-c2c(-c3ccccc3)nc(N)n3nc(C4CC4)nc23)cc(C)n1` [Example C-11], the IC50 was found to be 0.78 nM.

As for `CCc1nc2c(-c3ccc4[nH]nnc4c3)c(-c3ccccc3)nc(N)n2n1` [Example C-25], the IC50 amounted to 3.16 nM.

With `Cc1cc(-c2c(-c3ccccc3)nc(N)n3ncnc23)ccc1F` [Example B-2], the IC50 was determined as 7.82 nM.

Take `Cc1cc(-c2c(-c3cccnc3)nc(N)n3ncnc23)cc(C(F)(F)F)n1` [Example A-12]: the IC50 came to 11.4 nM.

In the case of `Cc1cc(-c2c(-c3ccccc3)nc(N)n3nc(COCc4ccccc4)nc23)cc(C)n1` [Example C-12], the IC50 amounted to 0.82 nM.

In the case of `COc1ccc(F)cc1-c1nc(N)n2ncnc2c1-c1cc(Cl)nc(C(F)(F)F)c1` [Example A-32], the IC50 was found to be 1.21 nM.
